Experimental data: PubChem BioAssay AID1963448 (Molecular Pharmacology Branch, DTP, NCI, 2024)
Values joined by “and” are separate entries in the source; they are usually repeats but may differ in a detail not shown here. Equal values may be shown once.

System: 616215-338-R-J1-PDC complex spheroid growth, % test/control
Assay: Anticancer human tumor 616215-338-R-J1-PDC patient-derived colon adenocarcinoma cell line growth inhibition [Asc]
Conditions: for viability, T/C: stronger effect = lower value
Procedure, shortened: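 Complex solid-tumor spheroids incorporating human endothelial and mesenchymal stem cells received single agents or combinations over half-log dilution ranges anchored to clinical Cmax.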

[1] = curve of first compound, second compound 0.03 µM
[2] = curve of first compound, second compound 0.0949 µM
[3] = curve of first compound, second compound 0.3 µM
[4] = curve of first compound, second compound 0.949 µM
[5] = curve of first compound, second compound 3 µM
[6] = second compound 0.03 µM, first compound 0.0316 µM
[7] = second compound 0.03 µM, first compound 0.1 µM
[8] = second compound 0.03 µM, first compound 0.316 µM
[9] = second compound 0.03 µM, first compound 1 µM
[10] = second compound 0.0949 µM, first compound 0.0316 µM
[11] = second compound 0.0949 µM, first compound 0.1 µM
[12] = second compound 0.0949 µM, first compound 0.316 µM
[13] = second compound 0.0949 µM, first compound 1 µM
[14] = second compound 0.3 µM, first compound 0.0316 µM
[15] = second compound 0.3 µM, first compound 0.1 µM
[16] = second compound 0.3 µM, first compound 0.316 µM
[17] = second compound 0.3 µM, first compound 1 µM
[18] = second compound 0.949 µM, first compound 0.0316 µM
[19] = second compound 0.949 µM, first compound 0.1 µM
[20] = second compound 0.949 µM, first compound 0.316 µM
[21] = second compound 0.949 µM, first compound 1 µM
[22] = second compound 3 µM, first compound 0.0316 µM
[23] = second compound 3 µM, first compound 0.1 µM
[24] = second compound 3 µM, first compound 0.316 µM
[25] = second compound 3 µM, first compound 1 µM
[26] = second compound 0.03 µM, first compound 0.00316 µM
[27] = second compound 0.03 µM, first compound 0.01 µM
[28] = second compound 0.0949 µM, first compound 0.00316 µM
[29] = second compound 0.0949 µM, first compound 0.01 µM
[30] = second compound 0.3 µM, first compound 0.00316 µM
[31] = second compound 0.3 µM, first compound 0.01 µM
[32] = second compound 0.949 µM, first compound 0.00316 µM
[33] = second compound 0.949 µM, first compound 0.01 µM
[34] = second compound 3 µM, first compound 0.00316 µM
[35] = second compound 3 µM, first compound 0.01 µM
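Note: spheroids exposed to agents for seven days before readout.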
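Throughout, for viability, T/C: 100% = DMSO vehicle control viability.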

`O=C(c1cc(Cc2n[nH]c(=O)c3ccccc23)ccc1F)N1CCN(C(=O)C2CC2)CC1` + CCN1C(C(=O)NC23CCC(C(=O)O)(CC2)CC3)C(c2cccc(Cl)c2F)C2(C(=O)Nc3cc(Cl)ccc32)C12CCCCC2 was tested, and the IC50 [1] was over 10000 nM, the IC50 [2] was over 10000 nM and the IC50 [3] was over 10000 nM. The IC50 [4] was over 10000 nM, the IC50 [5] was over 10000 nM and the viability, T/C [6] was 101%. It also gave a viability, T/C [7] of 99.1%, a viability, T/C [8] of 99.4% and a viability, T/C [9] of 99.8%. It also gave a viability, T/C (second compound 0.03 µM, first compound 3.16 µM) of 94.1%, a viability, T/C (second compound 0.03 µM, first compound 10 µM) of 77.6% and a viability, T/C [10] of 99%. It also gave a viability, T/C [11] of 100%, a viability, T/C [12] of 97.8% and a viability, T/C [13] of 92.2%. For the same compound, the viability, T/C (second compound 0.0949 µM, first compound 3.16 µM) was 81.2%, the viability, T/C (second compound 0.0949 µM, first compound 10 µM) was 67.5% and the viability, T/C [14] was 73.3%. The viability, T/C [15] was 72.6%, the viability, T/C [16] was 78% and the viability, T/C [17] was 71.8%. The viability, T/C (second compound 0.3 µM, first compound 3.16 µM) was 61.4%, the viability, T/C (second compound 0.3 µM, first compound 10 µM) was 65.2% and the viability, T/C [18] was 74.7%. For the same compound, the viability, T/C [19] was 80.8%, the viability, T/C [20] was 72.4% and the viability, T/C [21] was 68.5%. The viability, T/C (second compound 0.949 µM, first compound 3.16 µM) was 67%, the viability, T/C (second compound 0.949 µM, first compound 10 µM) was 55.7% and the viability, T/C [22] was 61.4%. It also gave a viability, T/C [23] of 62.5%, a viability, T/C [24] of 60.5% and a viability, T/C [25] of 60.1%. It also gave a viability, T/C (second compound 3 µM, first compound 3.16 µM) of 51.8% and a viability, T/C (second compound 3 µM, first compound 10 µM) of 48.8%.
With `CCN1CCN(Cc2ccc(Nc3ncc(F)c(-c4cc(F)c5nc(C)n(C(C)C)c5c4)n3)nc2)CC1` the viability, T/C (compound 0.00316 µM) was 98.2% and 91.4% and 109%, the viability, T/C (compound 0.01 µM) was 97.2% and 108% and 113% and the viability, T/C (compound 0.0316 µM) was 96.5% and 104% and 78.5%. The viability, T/C (compound 0.1 µM) was 102% and 106% and 82.5%, the viability, T/C (compound 0.316 µM) was 122% and 102% and 65.8% and the viability, T/C (compound 1 µM) was 130% and 117% and 34.9%. For the same compound, the IC50 (curve of compound) was > 1000 nM and 543 nM.
`NC1CCC(NC2CC2c2ccccc2)CC1` (configuration not stated) + CCN1C(C(=O)NC23CCC(C(=O)O)(CC2)CC3)C(c2cccc(Cl)c2F)C2(C(=O)Nc3cc(Cl)ccc32)C12CCCCC2 showed an IC50 [1] of over 100 nM, an IC50 [2] of over 100 nM and an IC50 [3] of over 100 nM. It also gave an IC50 [4] of over 100 nM, an IC50 [5] of over 100 nM and a viability, T/C (second compound 0.03 µM, first compound 0.000316 µM) of 106%. For the same compound, the viability, T/C (second compound 0.03 µM, first compound 0.001 µM) was 98.2%, the viability, T/C [26] was 99.7% and the viability, T/C [27] was 104%. For the same compound, the viability, T/C [6] was 100%, the viability, T/C [7] was 103% and the viability, T/C (second compound 0.0949 µM, first compound 0.000316 µM) was 95.5%. The viability, T/C (second compound 0.0949 µM, first compound 0.001 µM) was 100%, the viability, T/C [28] was 91.3% and the viability, T/C [29] was 91.7%. For the same compound, the viability, T/C [10] was 93.8%, the viability, T/C [11] was 95.2% and the viability, T/C (second compound 0.3 µM, first compound 0.000316 µM) was 68.9%. The viability, T/C (second compound 0.3 µM, first compound 0.001 µM) was 67.6%, the viability, T/C [30] was 73% and the viability, T/C [31] was 65.9%. For the same compound, the viability, T/C [14] was 62.4%, the viability, T/C [15] was 68% and the viability, T/C (second compound 0.949 µM, first compound 0.000316 µM) was 73.4%. The viability, T/C (second compound 0.949 µM, first compound 0.001 µM) was 72.2%, the viability, T/C [32] was 83.7% and the viability, T/C [33] was 71.7%. It also gave a viability, T/C [18] of 70.1%, a viability, T/C [19] of 72.7% and a viability, T/C (second compound 3 µM, first compound 0.000316 µM) of 54.6%. It also gave a viability, T/C (second compound 3 µM, first compound 0.001 µM) of 58.9%, a viability, T/C [34] of 58.2% and a viability, T/C [35] of 62.9%. The viability, T/C [22] was 51% and the viability, T/C [23] was 54.3%.
In the case of `Cn1ncnc1[C@H]1c2n[nH]c(=O)c3cc(F)cc(c23)N[C@@H]1c1ccc(F)cc1` + Cc1c(S(C)(=O)=O)c(-c2cc(F)cc(N3CCN(c4ccc(NS(=O)(=O)c5ccc(NC(CCN6CCC(C(=O)OCCCP(=O)(O)O)CC6)CSc6ccccc6)c(S(=O)(=O)C(F)(F)F)c5)cc4)CC3)c2)c(-c2ccc(Cl)cc2)n1C(C)C, the IC50 (curve of first compound, second compound 0.1 µM) is reported as over 100 nM, the IC50 (curve of first compound, second compound 0.316 µM) is reported as over 100 nM and the IC50 (curve of first compound, second compound 1 µM) is reported as 15.4 nM. The IC50 (curve of first compound, second compound 3.16 µM) was under 0.316 nM, the IC50 (curve of first compound, second compound 10 µM) was under 0.316 nM and the viability, T/C (second compound 0.1 µM, first compound 0.000316 µM) was 88.5%. For the same compound, the viability, T/C (second compound 0.1 µM, first compound 0.001 µM) was 104%, the viability, T/C (second compound 0.1 µM, first compound 0.00316 µM) was 85.2% and the viability, T/C (second compound 0.1 µM, first compound 0.01 µM) was 90.1%. It also gave a viability, T/C (second compound 0.1 µM, first compound 0.0316 µM) of 86.2%, a viability, T/C (second compound 0.1 µM, first compound 0.1 µM) of 84.9% and a viability, T/C (second compound 0.316 µM, first compound 0.000316 µM) of 86.4%. For the same compound, the viability, T/C (second compound 0.316 µM, first compound 0.001 µM) was 87.6%, the viability, T/C (second compound 0.316 µM, first compound 0.00316 µM) was 90.8% and the viability, T/C (second compound 0.316 µM, first compound 0.01 µM) was 85.8%. For the same compound, the viability, T/C (second compound 0.316 µM, first compound 0.0316 µM) was 76.6%, the viability, T/C (second compound 0.316 µM, first compound 0.1 µM) was 69.3% and the viability, T/C (second compound 1 µM, first compound 0.000316 µM) was 66.9%. For the same compound, the viability, T/C (second compound 1 µM, first compound 0.001 µM) was 67.8%, the viability, T/C (second compound 1 µM, first compound 0.00316 µM) was 63.7% and the viability, T/C (second compound 1 µM, first compound 0.01 µM) was 54%. The viability, T/C (second compound 1 µM, first compound 0.0316 µM) was 42.7%, the viability, T/C (second compound 1 µM, first compound 0.1 µM) was 32.9% and the viability, T/C (second compound 3.16 µM, first compound 0.000316 µM) was 38.9%. The viability, T/C (second compound 3.16 µM, first compound 0.001 µM) was 39%, the viability, T/C (second compound 3.16 µM, first compound 0.00316 µM) was 27.3% and the viability, T/C (second compound 3.16 µM, first compound 0.01 µM) was 15.8%. For the same compound, the viability, T/C (second compound 3.16 µM, first compound 0.0316 µM) was 9.58%, the viability, T/C (second compound 3.16 µM, first compound 0.1 µM) was 4.09% and the viability, T/C (second compound 10 µM, first compound 0.000316 µM) was 25.9%. The viability, T/C (second compound 10 µM, first compound 0.001 µM) was 20%, the viability, T/C (second compound 10 µM, first compound 0.00316 µM) was 10.4% and the viability, T/C (second compound 10 µM, first compound 0.01 µM) was 4.53%. It also gave a viability, T/C (second compound 10 µM, first compound 0.0316 µM) of 2.52% and a viability, T/C (second compound 10 µM, first compound 0.1 µM) of 1.65%.
For `CNC(C)C(=O)NC1CN(S(=O)(=O)c2cccc(S(=O)(=O)N3CCC4CCC(C(=O)NC(c5ccccc5)c5ccccc5)N4C(=O)C(NC(=O)C(C)NC)C3)c2)CCC2CCC(C(=O)NC(c3ccccc3)c3ccccc3)N2C1=O` (configuration not stated) + CCN1C(C(=O)NC23CCC(C(=O)O)(CC2)CC3)C(c2cccc(Cl)c2F)C2(C(=O)Nc3cc(Cl)ccc32)C12CCCCC2, the IC50 [1] was over 1000 nM, the IC50 [2] was over 1000 nM and the IC50 [3] was over 1000 nM. The IC50 [4] was over 1000 nM, the IC50 [5] was under 3.16 nM and the viability, T/C [26] was 95.2%. It also gave a viability, T/C [27] of 96.1%, a viability, T/C [6] of 87.4% and a viability, T/C [7] of 97.2%. The viability, T/C [8] was 91%, the viability, T/C [9] was 87% and the viability, T/C [28] was 90.9%. The viability, T/C [29] was 91.4%, the viability, T/C [10] was 95.7% and the viability, T/C [11] was 86.6%. The viability, T/C [12] was 76%, the viability, T/C [13] was 81.3% and the viability, T/C [30] was 74.1%. It also gave a viability, T/C [31] of 58.8%, a viability, T/C [14] of 62.3% and a viability, T/C [15] of 58.9%. The viability, T/C [16] was 66.5%, the viability, T/C [17] was 61.2% and the viability, T/C [32] was 71.5%. It also gave a viability, T/C [33] of 75.5%, a viability, T/C [18] of 67.4% and a viability, T/C [19] of 63.5%. For the same compound, the viability, T/C [20] was 72.8%, the viability, T/C [21] was 78.5% and the viability, T/C [34] was 41.1%. The viability, T/C [35] was 49.4%, the viability, T/C [22] was 51.6% and the viability, T/C [23] was 48.7%. The viability, T/C [24] was 47.2% and the viability, T/C [25] was 52.8%.
